Experimental data as given in ChEMBL document CHEMBL1201862, “PubChem BioAssay data set” (2004).
The source made the active and inactive calls.

Legend:
[1] = Vero E6 cell cytotoxicity, dose response, cytotoxicity control for non-replicating M. tuberculosis project, secondary assay (AID 492998); type: functional, VeroE6; conditions: Vero C1008
[2] = biological target: T1, Sentrin-specific protease 8 (Homo sapiens, UniProt Q96LD8); type: functional;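 also: luminescence read-out of SENP8 inhibition, dose-response confirmation following an ultra-high-throughput screen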
T1 sequence (Q96LD8 whole entry): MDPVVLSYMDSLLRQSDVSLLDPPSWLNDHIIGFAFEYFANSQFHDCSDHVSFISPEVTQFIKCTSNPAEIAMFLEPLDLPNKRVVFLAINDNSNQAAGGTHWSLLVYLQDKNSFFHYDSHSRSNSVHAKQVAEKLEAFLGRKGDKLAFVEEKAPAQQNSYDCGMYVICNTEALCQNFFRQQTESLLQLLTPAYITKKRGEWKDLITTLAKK

[3] = biological target: T2, Apoptotic protease-activating factor 1 (Homo sapiens, UniProt O14727); type: functional
T2 sequence (O14727 whole entry): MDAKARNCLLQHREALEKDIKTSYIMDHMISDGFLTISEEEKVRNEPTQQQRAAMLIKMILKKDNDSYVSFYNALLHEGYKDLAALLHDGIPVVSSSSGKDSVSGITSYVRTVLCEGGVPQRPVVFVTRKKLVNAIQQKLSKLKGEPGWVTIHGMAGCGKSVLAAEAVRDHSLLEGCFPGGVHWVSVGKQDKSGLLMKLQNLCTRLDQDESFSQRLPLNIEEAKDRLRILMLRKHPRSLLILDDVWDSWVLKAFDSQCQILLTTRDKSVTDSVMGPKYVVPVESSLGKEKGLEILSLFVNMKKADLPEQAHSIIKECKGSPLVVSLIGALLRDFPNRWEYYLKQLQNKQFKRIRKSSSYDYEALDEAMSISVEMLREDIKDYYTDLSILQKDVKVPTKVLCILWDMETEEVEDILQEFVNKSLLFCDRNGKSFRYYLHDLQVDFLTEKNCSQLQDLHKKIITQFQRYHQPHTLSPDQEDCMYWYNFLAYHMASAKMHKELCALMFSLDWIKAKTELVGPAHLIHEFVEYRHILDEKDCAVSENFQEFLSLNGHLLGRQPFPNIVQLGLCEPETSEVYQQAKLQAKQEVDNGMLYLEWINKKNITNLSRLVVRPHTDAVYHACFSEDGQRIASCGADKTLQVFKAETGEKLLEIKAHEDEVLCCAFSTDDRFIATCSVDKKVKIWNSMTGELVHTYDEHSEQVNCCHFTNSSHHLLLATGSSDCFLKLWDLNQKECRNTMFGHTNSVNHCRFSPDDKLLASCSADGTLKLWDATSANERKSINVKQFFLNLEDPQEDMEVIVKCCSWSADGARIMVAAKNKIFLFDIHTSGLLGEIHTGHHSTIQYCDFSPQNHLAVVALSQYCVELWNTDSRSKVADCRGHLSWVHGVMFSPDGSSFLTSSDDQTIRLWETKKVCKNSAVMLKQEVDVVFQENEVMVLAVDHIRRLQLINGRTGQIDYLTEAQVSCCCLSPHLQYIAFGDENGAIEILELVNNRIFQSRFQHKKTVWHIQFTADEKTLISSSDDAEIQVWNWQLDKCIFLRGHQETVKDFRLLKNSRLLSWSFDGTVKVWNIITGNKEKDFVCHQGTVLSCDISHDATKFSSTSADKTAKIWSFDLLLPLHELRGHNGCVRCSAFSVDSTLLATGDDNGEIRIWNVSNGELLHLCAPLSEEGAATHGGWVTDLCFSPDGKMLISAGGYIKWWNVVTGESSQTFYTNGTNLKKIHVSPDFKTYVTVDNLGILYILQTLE

[4] = biological target: DNA (cytosine-5)-methyltransferase 1 (Homo sapiens, UniProt P26358); test: DNMT1 methyltransferase inhibitors, confirmation, biochemical, fluorescent molecular beacon (AID 602386); type: functional
HEK293 = test: inhibitors of LMP1-driven NF-kB reporter, dose response, cell-based, HEK293, luciferase, cherry-pick (AID 588343); type: functional; conditions: Homo sapiens
[5] = biological target: T3, Histone-lysine N-methyltransferase NSD2 (Homo sapiens, UniProt O96028); type: biochemical
T3 sequence (O96028 whole entry): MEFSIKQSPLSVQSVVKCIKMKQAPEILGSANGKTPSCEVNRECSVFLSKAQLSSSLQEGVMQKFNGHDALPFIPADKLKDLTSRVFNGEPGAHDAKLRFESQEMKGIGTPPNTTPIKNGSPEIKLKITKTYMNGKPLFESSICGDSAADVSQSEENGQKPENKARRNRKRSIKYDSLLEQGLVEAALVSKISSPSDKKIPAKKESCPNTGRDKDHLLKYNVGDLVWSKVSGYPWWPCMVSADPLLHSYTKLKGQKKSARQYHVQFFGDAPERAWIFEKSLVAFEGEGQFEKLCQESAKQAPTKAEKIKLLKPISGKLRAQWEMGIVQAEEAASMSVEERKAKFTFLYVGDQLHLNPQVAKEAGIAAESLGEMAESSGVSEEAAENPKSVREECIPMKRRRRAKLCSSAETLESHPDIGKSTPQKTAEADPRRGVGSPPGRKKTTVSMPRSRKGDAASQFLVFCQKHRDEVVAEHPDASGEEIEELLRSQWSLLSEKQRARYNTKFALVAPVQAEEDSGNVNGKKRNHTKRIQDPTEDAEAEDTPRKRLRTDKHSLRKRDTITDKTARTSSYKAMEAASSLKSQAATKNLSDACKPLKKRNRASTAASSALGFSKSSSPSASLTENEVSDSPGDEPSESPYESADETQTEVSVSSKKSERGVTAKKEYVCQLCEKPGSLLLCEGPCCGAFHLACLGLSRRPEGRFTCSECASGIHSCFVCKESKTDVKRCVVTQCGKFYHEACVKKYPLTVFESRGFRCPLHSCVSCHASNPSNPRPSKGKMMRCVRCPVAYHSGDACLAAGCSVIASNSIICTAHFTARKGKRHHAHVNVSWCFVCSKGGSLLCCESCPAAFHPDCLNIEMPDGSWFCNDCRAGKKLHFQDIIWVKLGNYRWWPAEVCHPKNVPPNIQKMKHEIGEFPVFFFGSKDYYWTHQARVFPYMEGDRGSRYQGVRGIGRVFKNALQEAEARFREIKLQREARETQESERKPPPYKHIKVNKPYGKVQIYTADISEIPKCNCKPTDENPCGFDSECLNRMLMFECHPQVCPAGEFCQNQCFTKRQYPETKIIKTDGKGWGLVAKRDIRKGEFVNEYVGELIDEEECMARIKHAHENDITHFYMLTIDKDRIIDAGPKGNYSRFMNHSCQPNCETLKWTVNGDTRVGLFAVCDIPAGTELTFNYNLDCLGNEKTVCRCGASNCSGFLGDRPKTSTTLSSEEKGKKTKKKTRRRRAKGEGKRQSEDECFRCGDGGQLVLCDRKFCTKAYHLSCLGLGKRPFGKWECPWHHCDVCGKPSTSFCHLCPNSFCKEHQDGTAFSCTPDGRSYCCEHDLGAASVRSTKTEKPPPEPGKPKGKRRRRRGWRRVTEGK

Sequence of DNA (cytosine-5)-methyltransferase 1 (P26358 whole entry): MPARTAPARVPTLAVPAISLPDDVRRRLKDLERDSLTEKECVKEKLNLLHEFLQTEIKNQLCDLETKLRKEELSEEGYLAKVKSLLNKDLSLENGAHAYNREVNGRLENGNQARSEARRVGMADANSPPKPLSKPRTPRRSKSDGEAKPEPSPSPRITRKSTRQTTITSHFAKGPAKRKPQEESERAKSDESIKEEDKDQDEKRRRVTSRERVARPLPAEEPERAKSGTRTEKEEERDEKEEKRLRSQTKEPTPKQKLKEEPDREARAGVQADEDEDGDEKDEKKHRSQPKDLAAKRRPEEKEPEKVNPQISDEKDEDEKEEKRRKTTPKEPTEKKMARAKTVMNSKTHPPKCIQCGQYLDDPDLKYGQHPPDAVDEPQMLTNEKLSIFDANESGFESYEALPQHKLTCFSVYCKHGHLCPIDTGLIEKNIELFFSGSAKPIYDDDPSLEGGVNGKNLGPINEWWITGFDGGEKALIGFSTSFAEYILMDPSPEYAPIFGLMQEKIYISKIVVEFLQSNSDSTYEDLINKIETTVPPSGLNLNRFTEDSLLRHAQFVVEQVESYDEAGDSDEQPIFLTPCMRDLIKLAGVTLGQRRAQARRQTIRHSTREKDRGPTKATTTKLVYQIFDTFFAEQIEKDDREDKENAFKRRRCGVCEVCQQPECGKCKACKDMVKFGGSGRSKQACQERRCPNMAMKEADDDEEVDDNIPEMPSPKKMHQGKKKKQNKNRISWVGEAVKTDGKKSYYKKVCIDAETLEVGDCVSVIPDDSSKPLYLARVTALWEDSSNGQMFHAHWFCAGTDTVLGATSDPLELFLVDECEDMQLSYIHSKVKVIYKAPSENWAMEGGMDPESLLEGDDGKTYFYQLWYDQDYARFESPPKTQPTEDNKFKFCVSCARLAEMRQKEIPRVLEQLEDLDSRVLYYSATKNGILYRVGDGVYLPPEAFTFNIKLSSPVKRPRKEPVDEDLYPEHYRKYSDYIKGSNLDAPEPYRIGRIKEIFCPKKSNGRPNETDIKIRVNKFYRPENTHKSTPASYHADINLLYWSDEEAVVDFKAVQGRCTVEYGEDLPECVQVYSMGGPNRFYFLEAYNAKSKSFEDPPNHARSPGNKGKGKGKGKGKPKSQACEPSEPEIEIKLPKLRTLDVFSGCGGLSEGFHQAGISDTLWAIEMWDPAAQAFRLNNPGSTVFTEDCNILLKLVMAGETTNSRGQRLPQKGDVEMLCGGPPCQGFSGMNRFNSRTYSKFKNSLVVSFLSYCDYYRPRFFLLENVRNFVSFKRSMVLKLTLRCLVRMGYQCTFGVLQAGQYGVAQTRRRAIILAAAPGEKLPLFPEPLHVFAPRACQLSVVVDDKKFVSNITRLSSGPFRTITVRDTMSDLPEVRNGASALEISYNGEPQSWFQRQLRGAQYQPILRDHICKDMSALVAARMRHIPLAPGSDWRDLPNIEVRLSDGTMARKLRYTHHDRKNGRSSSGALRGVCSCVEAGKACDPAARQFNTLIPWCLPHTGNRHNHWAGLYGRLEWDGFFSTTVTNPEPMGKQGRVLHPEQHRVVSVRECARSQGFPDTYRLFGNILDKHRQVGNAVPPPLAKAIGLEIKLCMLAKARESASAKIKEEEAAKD

With O=C(CNc1cccc2ccccc12)N/N=C/c1ccc([N+](=O)[O-])o1 the CC50 [1] was > 20 µM (active).

With O=C1NC(=S)N/C1=C/c1cc2c(cc1[N+](=O)[O-])OCO2 the IC50 [2] was 9.01 µM (active), the IC50 [3] was 12.9 µM (active) and the IC50 [4] was 3.85 µM (active).

For O=C(CC(O)(C(F)(F)F)C(F)(F)F)Nc1ccc(Cl)c(Cl)c1, the AC50 (HEK293) was 1.34 µM (active).

With O=C(O)CSc1cc(NS(=O)(=O)c2ccc(Br)cc2)c2ccccc2c1O the AC50 [5] was 1.65 µM (active).
